Laboratory results from ChEMBL document CHEMBL4699623 (J Med Chem, 2020).

Experiments:
[1] = target: T1, Phenylethanolamine N-methyltransferase (Homo sapiens, UniProt P11086); experiment: Competitive inhibition of C-terminal hexahistidine tag in human recombinant PNMT expressed in Escherichia coli assessed as inhibition constant using AdoMet as substrate in presence of 100 uM PEA as co-substrate by Sigma-plot analysis
T1 sequence (P11086 whole entry): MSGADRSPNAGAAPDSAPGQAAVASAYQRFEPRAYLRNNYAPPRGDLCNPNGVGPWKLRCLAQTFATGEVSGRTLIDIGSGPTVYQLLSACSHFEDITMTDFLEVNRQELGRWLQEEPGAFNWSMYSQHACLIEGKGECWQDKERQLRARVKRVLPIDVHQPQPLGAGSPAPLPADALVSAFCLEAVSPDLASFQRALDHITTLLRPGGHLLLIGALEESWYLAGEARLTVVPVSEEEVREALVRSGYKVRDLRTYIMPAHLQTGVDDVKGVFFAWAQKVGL

[2] = target: T2, Phenylethanolamine N-methyltransferase (Homo sapiens) (UniProt P11086)
T2 sequence (whole entry): T1 sequence (P11086 whole entry)

[3] = target: T3, Alpha-2A adrenergic receptor (Rattus norvegicus, UniProt P22909); experiment: Displacement of [3H]-clonidine from Sprague-Dawley rat alpha2 adrenergic receptor by radioligand binding assay
T3 sequence (P22909 whole entry): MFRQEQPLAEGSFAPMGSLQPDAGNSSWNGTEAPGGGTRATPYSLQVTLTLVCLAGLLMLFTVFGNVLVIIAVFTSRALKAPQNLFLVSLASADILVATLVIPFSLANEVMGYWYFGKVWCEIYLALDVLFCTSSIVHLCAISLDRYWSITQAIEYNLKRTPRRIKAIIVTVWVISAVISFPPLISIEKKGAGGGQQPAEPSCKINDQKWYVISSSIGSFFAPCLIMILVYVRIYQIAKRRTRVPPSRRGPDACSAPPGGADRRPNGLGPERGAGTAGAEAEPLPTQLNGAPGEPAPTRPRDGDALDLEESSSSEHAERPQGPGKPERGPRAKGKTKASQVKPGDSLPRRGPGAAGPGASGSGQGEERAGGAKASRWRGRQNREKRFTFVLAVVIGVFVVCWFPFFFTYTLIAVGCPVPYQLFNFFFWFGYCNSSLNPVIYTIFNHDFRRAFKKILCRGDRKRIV

Row | Ki [1] [µM] | Compound | Kis [2] [µM] | Ki [3] [µM]
1 | 14 | Nc1ncnc2c1ncn2[C@@H]1O[C@H](CSCC[C@H](N)C(=O)O)[C@@H](O)[C@H]1O [S-ADENOSYLHOMOCYSTEINE] |  | 
2 |  | NCC1Cc2ccccc2CN1 (stereo not given) | 1.4 | 1.5
3 |  | NC(=O)C1Cc2ccccc2CN1 (stereo not given) | 31 | 250
